In one experiment the test system is RT112. Description: Cell Death Detection ELISA (apoptosis kit) with RT112 as a function of pH. The class given is cell-based, human. As for the experimental part:
The measurements were carried out using a “Cell Death Detection ELISA” kit, Cat. No. 1774 425 commercially available from Boehringer (Mannheim). The process instructions are additionally supplied by Boehringer.
The OD value corresponds to the cell death.
The results of the experiments are summarized in FIGS. 1 to 3, which correspond to Tables 1 to 3. In the figures, the cell death is recorded in a ELISA (apoptosis kit) with RT112 as a function of the pH. That is to say the data on the Y axis of the figures is a measure of the cell death; the pH of the cells is indicated on the X axis. FIG. 1 and FIG. 2 show experiments in which individual compounds were employed. […] It stands out that at a pH of between 6.5 and 7.0 the compositions according to the invention cause a cell death which is preferably in the vicinity of or above the CAM value, which virtually corresponds to a complete destruction of the tumor tissue.
The apoptosis-inducing substance CAM used in the experiments is camptothecin (CAM value). In the experiments, positive control means that instead of the apoptotic cancer cells induced by the substances a histone-DNA complex with known detection sensitivity is employed for detection, i.e. an artificial apoptosis product is provided. In the experiments, negative control means that the same detection procedure is carried out, but without addition of substances or substance mixtures.
(§1) The human bladder tumor cell line. RT112 or the human chronic myeloid leukemia cell line K562 were purchased from DKFZ Tumorzell—und datenbank (Institut für experimentelle Pathologie, Heidelberg, FRG) or DSM (Deutsche Sammlung von Mikroorganismen und Zellkulturen GmbH, Braunschweig, FRG), respectively. The cells were cultured in HEPES-buffered RPMI 1640 (SIGMA, Deisenhofen, FRG) supplemented with 2 mM L-glutamine (BIOCHROM, Berlin, FRG), 1% NEAE (BIOCHROM), 10% heat-inactivated fetal calf serum (BIOCHROM), 100 U/ml penicillin and 50 μg/ml streptomycin (BIOCHROM) at 37° C. and 5% CO2. Only mycoplasma-free cell cultures were used; this was frequently tested using a specific detection kit (BOEHRINGER MANNHEIM, Mannheim, FRG).
For orientation: An ELISA detects its analyte on a solid surface through an enzyme-linked reagent.

The test system of experiment [1] is RT112 tumor cells (bladder carcinoma). Put plainly: [3H]-TdR incorporation assay (proliferation). The class given is cell-based, human. Conditions: in dependence of extracellular pH, FIG. 4.
Text: The anticancer activity of salicylate combinations can also be examined by in vitro experiments with tumor cell lines. As a relevant criterion of toxic effects on cancer cells the proliferation rate can be considered. The proliferation rate effected by salicylate combinatioins can be measured in dependence of the extracellular pH-milieu. (Details for cell cultures, see Materials & Methods below.)
The effect of salicylate combinations on the proliferation of RT112 tumor cells is quantitated by the measurement of incorporated tritiated thymidine ([^3H]-TdR) into the cellular DNA of the cancer cells by liquid scintillation counting (LSC). (Method details, see Material & Methods below.)
as §1
The influence of cytotoxic molecules on the proliferation of RT112 tumor cells was quantitated by the measurement of the incorporated tritiated thymidine ([^3H]-TdR) into the cellular DNA of the tumor cells by liquid scintillation counting (LSC). In brief, RT112 cells were harvested, washed twice and resuspended in culture media (2.5×10^5/ml). 100 μl/well of the RT112 cell suspension were seeded into 96 well microtiter plates (BECTON DICKINSON) and incubated over night at 37° C. and 5% CO2. The supernatant was replaced by 90 μl pH-adjusted culture medium (pH 6.0–7.4) and 10 μl of the solution of preferred substances or 100 μl/well pH-adjusted culture medium alone (control). The cells were incubated for various time periods at 37° C. and 5% CO2. Thereafter, cells were washed twice, reincubated in fresh pH-adjusted culture medium and pulsed for 24 h by the addition of 23.125 kBq [^3H]TdR/well (925 kBq/ml; AMERSHAM, Braunschweig, FRG). After freezing and thawing, radioactive DNA of the cultures were transferred to glass fiber filters with an automatic cell harvester (PHARMACIA). The incorporated radioactivity was measured in a liquid scintillation counter (PHARMACIA).

Where [2] appears, read: Table 2, measurement after 35 minutes, 15 mM, initial pH 6.0.
[3] abbreviates: Table 2, measurement after 35 minutes, 15 mM, initial pH 6.5.
The mark [4] stands for this setting: Table 2, measurement after 35 minutes, 15 mM, initial pH 7.0.
The mark [5] stands for this setting: Table 2, measurement after 35 minutes, 15 mM, initial pH 7.4.
Setting [6] is: Table 2, measurement after 35 minutes, 10 mM, initial pH 6.0.
Where [7] appears, read: Table 2, measurement after 35 minutes, 10 mM, initial pH 6.5.
[8] abbreviates: Table 2, measurement after 35 minutes, 10 mM, initial pH 7.0.
Setting [9] is: Table 2, measurement after 35 minutes, 10 mM, initial pH 7.4.

Each structure is given as a SMILES string.

For the molecule `CC[C@@]1(O)C(=O)OCc2c1cc1n(c2=O)Cc2cc3ccccc3nc2-1` [CAM, camptothecin], the “OD (405–490 nm)” value was 0.818 in the experiment on RT112 (Table 1, measurement after 35 minutes, 800 ng/ml, initial pH 6.0); 3.037 with RT112 (Table 1, measurement after 35 minutes, 800 ng/ml, initial pH 6.5); 2.725 in the experiment with RT112 (Table 1, measurement after 35 minutes, 800 ng/ml, initial pH 7.0); 2.416 in the experiment on RT112 (Table 1, measurement after 35 minutes, 800 ng/ml, initial pH 7.4); 0.344 in the experiment with RT112 (Table 2, measurement after 35 minutes, 160 ng/ml, initial pH 6.0); 0.711 in the experiment on RT112 (Table 2, measurement after 35 minutes, 160 ng/ml, initial pH 6.5). In addition, the “OD (405–490 nm)” value is 1.220 in the experiment on RT112 (Table 2, measurement after 35 minutes, 160 ng/ml, initial pH 7.0); 1.923 with RT112 (Table 2, measurement after 35 minutes, 160 ng/ml, initial pH 7.4); 1.681 in the experiment with RT112 (Table 3, measurement after 20 minutes, 800 ng/ml, initial pH 6.0); 1.708 with RT112 (Table 3, measurement after 20 minutes, 800 ng/ml, initial pH 6.5); 1.791 in the experiment on RT112 (Table 3, measurement after 20 minutes, 800 ng/ml, initial pH 7.0); 2.217 with RT112 (Table 3, measurement after 20 minutes, 800 ng/ml, initial pH 7.4).

Take `O=C(O)c1c(O)cc(O)cc1O` [DHSA, 2,4,6-trihydroxybenzoic acid]: the “effect on the proliferation rate” value in experiment [1] is listed as “no effect or minor effect”.

For the molecule `O=C(O)c1cc(-c2ccc(F)cc2F)ccc1O` [Diflu, 5-(2,4-difluoro-phenyl)salicylic acid], in experiment [1], the “effect on the proliferation rate” value is reported as “no effect or minor effect”.

Take `Nc1ccc(C(=O)O)c(O)c1` [Substance 58a, 2-hydroxy-4-aminobenzoic acid]: the “OD (405–490 nm)” value with RT112 (setting [2]) is 0.320; with RT112 (setting [3]), 0.282; in the experiment on RT112 (setting [4]), 0.574; in the experiment on RT112 (setting [5]), 1.835. Also, the “effect on the proliferation rate” value in experiment [1] is on record as “no effect or minor effect”.

As to `CC(=O)Oc1ccccc1C(=O)O` [Substance 121, acetylsalicylic acid (2-acetoxybenzoic acid)], the “OD (405–490 nm)” value in the experiment with RT112 (setting [6]) stood at 1.282; with RT112 (setting [7]), 0.163; with RT112 (setting [8]), 0.413; in the experiment on RT112 (setting [9]), 1.508. Also, in experiment [1], the “effect on the proliferation rate” value is “no effect or minor effect”.

Regarding `CC(=O)Oc1ccc(C(=O)O)c(OC(C)=O)c1` [Substance 132, 2,4-diacetoxybenzoic acid], the “OD (405–490 nm)” value was determined as 2.856 in the experiment with RT112 (setting [6]); 0.183 in the experiment with RT112 (setting [7]); 0.088 in the experiment on RT112 (setting [8]); 0.502 in the experiment with RT112 (setting [9]); 0.407 in the experiment with RT112 (Table 3, measurement after 20 minutes, 5 mM, initial pH 6.0); 0.371 with RT112 (Table 3, measurement after 20 minutes, 5 mM, initial pH 6.5). The “OD (405–490 nm)” value with RT112 (Table 3, measurement after 20 minutes, 5 mM, initial pH 7.0) amounted to 0.422; with RT112 (Table 3, measurement after 20 minutes, 5 mM, initial pH 7.4), 0.916.

Take `O=C(O)c1c(O)cccc1O` [Substance 136, 2,6-dihydroxybenzoic acid]: the “OD (405–490 nm)” value in the experiment with RT112 (Table 1, measurement after 35 minutes, 5 mM, initial pH 6.0) amounted to 0.187; with RT112 (Table 1, measurement after 35 minutes, 5 mM, initial pH 6.5) it was 0.918; in the experiment with RT112 (Table 1, measurement after 35 minutes, 5 mM, initial pH 7.0), 0.321; in the experiment with RT112 (Table 1, measurement after 35 minutes, 5 mM, initial pH 7.4) it was 0.382; in the experiment with RT112 (Table 1, measurement after 35 minutes, 7 mM, initial pH 6.0), 0.221; with RT112 (Table 1, measurement after 35 minutes, 7 mM, initial pH 6.5), 1.287. The “OD (405–490 nm)” value with RT112 (Table 1, measurement after 35 minutes, 7 mM, initial pH 7.0) is 0.524; with RT112 (Table 1, measurement after 35 minutes, 7 mM, initial pH 7.4), 0.816. Moreover, the “effect on the proliferation rate” value in experiment [1] was “no effect or minor effect”.

`COc1ccc(C(=O)O)c(OC)c1` [Substance 188, 2,4-dimethoxybenzoic acid]: the “OD (405–490 nm)” value came to 0.256 in the experiment on RT112 (setting [2]), 0.309 with RT112 (setting [3]), 0.502 with RT112 (setting [4]) and 1.854 with RT112 (setting [5]).
